Experimental data reported in patent US20180303874A1, “Compositions and Methods for the Prevention of Microbial Infections” (LANKENAU INSTITUTE FOR MEDICAL RESEARCH, priority 2011, published 2018).

Assays:
HSV = settings: co-incubated; cited from earlier work
claudin-2 = assay: Western blot analysis of tight junctional protein claudin-2 in Caco-2 cells; type: cell-based, human; settings: 50 or 100 μM zinc, one week, vs control
Procedure: (§1) Human gastrointestinal epithelial cells were allowed to grow to maximal density and re-fed with culture media at different zinc concentrations for pre-determined time points (0, 3, 6, 24 or 48 hours, or 7 days). Flasks were washed two times each with ice cold saline, then flash-frozen in an ethanol-dry ice bath, and stored at −80° C. until fractionation. At that time, flasks were quick-thawed and 2 ml of 4° C. Buffer A (20 mM Tris-HCl, pH 7.5, 0.25 M sucrose, 10 mM EGTA, 2 mM EDTA) with protease and phosphatase inhibitors (final concentrations: 0.8 μM aprotinin, 20 μM leupeptin, 50 μM bestatin, 1 mM AEBSF, 10 μM pepstatin) (Calbiochem) was added to each, cells were scraped into the buffer, the suspension mechanically disrupted and then sonicated for 60 seconds on ice and transferred to an ultracentrifuge tube. Tubes were centrifuged in a chilled Beckman 50TI rotor at 39,000 rpm for one hour at 4° C. […] The supernatant from this final spin was the “membrane fraction.” Total protein was measured using the BioRad DC™ Protein Assay Kit.
(§2) Samples of these fractions were analyzed by polyacrylamide gel electrophoresis using a Novex XCell SureLock™ Mini-Cell apparatus and a 4-20% gradient Novex Tris-Glycine, pre-cast, 10-well, 1.5 mm thick gel (Invitrogen). […]
(§3) Films were analyzed for protein expression level by measuring optical density units with a Personal Densitometer™ SI (Molecular Dynamics).

Caco-2 cell sheets = assay: Transepithelial electrophysiology of Caco-2 cell sheets; type: cell-based, human; settings: vs control
Procedure: Cells were seeded at the density of 5×10^5 onto sterile Millipore Millicell polycarbonate (PCF) permeable supports (pore size 0.4 μm with a diameter of 30 mm) on Day 0. Cells were allowed to grow for 21-24 days prior to experiments (Hubatsch et al. (2007) Nat. Protoc., 2:2111-9). Three or four Millicell PCF units (2 ml/unit) were placed in a 100 mm sterile petri dish (15 ml/dish). Cells were fed bilaterally 3 times per week with control medium until at least Day 14 and switched to different zinc-supplemented media (Ctrl, 50 or 100 μM elemental zinc) for another week. […]
On the day of experiment, cells were re-fed in fresh culture medium and allowed to incubate at 37° C. for 2 hr prior to the actual experiment. Transepithelial voltage and transepithelial electrical resistance were measured as previously described (Skrovanek et al. (2007) Am. J. Physiol. Regul. Integr. Comp. Physiol., 293:R1046-55). In brief, using silver/silver chloride electrodes in series with 1M NaCl agar bridges, a 40 microamp externally applied current pulse was delivered across the cell layer and the resultant change in the voltage across the cell layer was measured using calomel electrodes in series with 1M NaCl/agar bridges and a Keithley® 197A auto-ranging digital multimeter. […]

claudin-7 = assay: Western blot analysis of tight junctional protein claudin-7 in Caco-2 cells; type: cell-based, human; settings: 50 or 100 μM zinc, one week, vs control
Procedure: as §1, §2, §3

Compound	inactivation of HSV (HSV)	other results
CC(=O)[O-].CC(=O)[O-].[Zn+2] [zinc acetate]	directly inactivate	–
CC(O)C(=O)[O-].CC(O)C(=O)[O-].[Zn+2] (centres unmarked) [zinc lactate]	directly inactivate	–
O=S(=O)([O-])[O-].[Zn+2] [zinc sulfate]	directly inactivate	–
[Zn] [zinc]	–	expression of claudin-2 (claudin-2): significantly reduced; short circuit current (Caco-2 cell sheets; 50 or 100 μM zinc, one week): comparable short circuit currents; transepithelial electrical resistance (Caco-2 cell sheets; one-week zinc supplementation (50 or 100 μM)): significant increase; expression of claudin-7 (claudin-7): reduction, albeit to a lesser extent than claudin-2
zinc gluconate	directly inactivate	–
